Measured values reported in US12098145B2 (Libra Therapeutics, Inc., priority 2022, dated 2024).
Where two headings read alike, the source gives them in different places.

Assays:
TFEB = TFEB translocation assay (TFEB reporter in U2OS cells, imaging); assay type: cell-based; details: Homo sapiens; U2OS cell line with TFEB reporter, 2 hours incubation, nucleus to cytoplasm ratio, normalized to Torin-1; read-out: TFEB Translocation pEC50 (converted)
In short: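 U2OS cells stably expressing mRFP-fused TFEB reporter, switched to Opti-MEM then treated 2 h at 37 °C with compounds (0.5% DMSO, 0.015% Tween 80). Hoechst-stained, PFA-fixed cells imaged at 20×; nucleus/cytoplasm intensity ratio per well normalized to Torin-1 (100%) and DMSO (0%).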

TRPML1 = target: T1, TRPML1 (Homo sapiens, UniProt Q9GZU1); experiment: Cellular TRPML1 assay (FLIPR, GCaMP6f calcium read-out); assay type: cell-based
T1 construct: expressed in transfected cells; host or cells: HEK T-REx cells stably expressing GCaMP6f and TRPML1
In short: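 HEK T-REx cells stably expressing TRPML1 and GCaMP6f, seeded 24 h before in Optimem + 0.5% FBS. After ~10 min pre-incubation at room temperature, compounds in Ca2+-free Tyrode's buffer were injected on FLIPR Tetra (final DMSO 0.5%). Calcium fluorescence kinetics followed for 300 s.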

[1] = HEKT-REx/GCaMP6f/TRPML1 cells, FLIPR TETRA, kinetic response over 300 seconds, read-out: TRPML1 FLIPR pEC50 (converted)

T1 sequence (Q9GZU1 whole entry): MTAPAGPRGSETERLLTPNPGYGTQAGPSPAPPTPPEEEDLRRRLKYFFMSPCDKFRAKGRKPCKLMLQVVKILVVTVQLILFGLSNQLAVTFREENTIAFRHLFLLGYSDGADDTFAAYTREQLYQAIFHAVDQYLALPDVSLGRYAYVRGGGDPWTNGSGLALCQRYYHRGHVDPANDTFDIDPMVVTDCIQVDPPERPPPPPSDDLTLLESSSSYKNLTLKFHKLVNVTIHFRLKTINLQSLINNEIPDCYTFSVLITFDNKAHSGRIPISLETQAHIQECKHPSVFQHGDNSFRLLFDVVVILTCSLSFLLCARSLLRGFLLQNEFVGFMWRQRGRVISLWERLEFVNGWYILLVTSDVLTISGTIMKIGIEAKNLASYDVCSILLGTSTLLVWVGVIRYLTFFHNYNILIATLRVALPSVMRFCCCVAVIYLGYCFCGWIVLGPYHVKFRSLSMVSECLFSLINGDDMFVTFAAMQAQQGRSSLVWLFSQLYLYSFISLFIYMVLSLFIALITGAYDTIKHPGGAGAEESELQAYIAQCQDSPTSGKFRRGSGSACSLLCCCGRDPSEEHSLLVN

Row | SMILES | EC50 (TFEB) [nM] | EC50 (TRPML1; [1]) [nM] | EC50 (TRPML1) [nM]
1 | O=C(Nc1cc(F)c(O[C@@H]2C[C@@H]3C[C@@H]3C2)c(F)c1)c1nc(N2CC3(CCCO3)C2)oc1CC(F)(F)F [Example 173, N-(4-(cis-bicyclo[3.1.0]hexan-3-yloxy)-3,5-difluorophenyl)-2-(5-oxa-2-azaspiro[3.4]octan-2-yl)-5-(2,2,2-trifluoroethyl)oxazole-4-carboxamide] | 10 to 1000 | 10 to 1000 | –
2 | O=C(Nc1cc(F)c(O[C@@H]2C[C@@H]3C[C@@H]3C2)c(F)c1)c1nc(N2CCCCCC2)oc1CC(F)(F)F [Example 174, 2-(azepan-1-yl)-N-(4-(cis-bicyclo[3.1.0]hexan-3-yloxy)-3,5-difluorophenyl)-5-(2,2,2-trifluoroethyl)oxazole-4-carboxamide] | 10 to 1000 | 10 to 1000 | –
3 | O=C(Nc1cc(F)c(OC2CC3C[C@@H]3C2)c(F)c1)c1nc(N2CC3CCC3C2)oc1CC(F)(F)F (stereo partly drawn) [Example 177, N-(4-(cis-bicyclo[3.1.0]hexan-3-yloxy)-3,5-difluorophenyl)-2-(3-azabicyclo[3.2.0]heptan-3-yl)-5-(2,2,2-trifluoroethyl)oxazole-4-carboxamide] | 10 to 1000 | 10 to 1000 | –
4 | COC1(C)CN(c2nc(C(=O)Nc3cc(F)c(O[C@@H]4C[C@@H]5C[C@@H]5C4)c(F)c3)c(CC(F)(F)F)o2)C1 [Example 178, N-(4-(cis-bicyclo[3.1.0]hexan-3-yloxy)-3,5-difluorophenyl)-2-(3-methoxy-3-methylazetidin-1-yl)-5-(2,2,2-trifluoroethyl)oxazole-4-carboxamide] | 10 to 1000 | 10 to 1000 | –
5 | O=C(Nc1cc(F)c(OC2CC3C[C@H]3C2)c(F)c1)c1nc(N2C[C@H]3CCO[C@H]3C2)oc1CC(F)(F)F (stereo partly drawn) [Example 179, N-(4-(cis-bicyclo[3.1.0]hexan-3-yloxy)-3,5-difluorophenyl)-2-((3aR,6aR)-hexahydro-5H-furo[2,3-c]pyrrol-5-yl)-5-(2,2,2-trifluoroethyl)oxazole-4-carboxamide] | 10 to 1000 | 10 to 1000 | –
6 | O=C(Nc1cc(F)c(OC2CC3C[C@H]3C2)c(F)c1)c1nc(N2C[C@@H]3CCO[C@@H]3C2)oc1CC(F)(F)F (stereo partly drawn) [Example 180, N-(4-(cis-bicyclo[3.1.0]hexan-3-yloxy)-3,5-difluorophenyl)-2-((3aS,6aS)-hexahydro-5H-furo[2,3-c]pyrrol-5-yl)-5-(2,2,2-trifluoroethyl)oxazole-4-carboxamide] | 10 to 1000 | 10 to 1000 | –
7 | CCC1(CC)CN(c2nc(C(=O)Nc3cc(F)c(O[C@@H]4C[C@@H]5C[C@@H]5C4)c(F)c3)c(CC(F)(F)F)o2)C1 [Example 183, N-(4-(cis-bicyclo[3.1.0]hexan-3-yloxy)-3,5-difluorophenyl)-2-(3,3-diethylazetidin-1-yl)-5-(2,2,2-trifluoroethyl)oxazole-4-carboxamide] | 10 to 1000 | 10 to 1000 | –
8 | O=C(Nc1cc(F)c(OC2CC3C[C@@H]3C2)c(F)c1)c1nc(N2CCC3CCCC32)oc1CC(F)(F)F (stereo partly drawn) [Example 185, N-(4-(cis-bicyclo[3.1.0]hexan-3-yloxy)-3,5-difluorophenyl)-2-(hexahydrocyclopenta[b]pyrrol-1(2H)-yl)-5-(2,2,2-trifluoroethyl)oxazole-4-carboxamide] | 10 to 1000 | 10 to 1000 | –
9 | O=C(Nc1cc(F)c(OC2CC3C[C@@H]3C2)c(F)c1)c1nc(N2CC3COCC3C2)oc1CC(F)(F)F (stereo partly drawn) [Example 186, N-(4-(cis-bicyclo[3.1.0]hexan-3-yloxy)-3,5-difluorophenyl)-2-(tetrahydro-1H-furo[3,4-c]pyrrol-5(3H)-yl)-5-(2,2,2-trifluoroethyl)oxazole-4-carboxamide] | 10 to 1000 | 10 to 1000 | –
10 | Cc1cc(NC(=O)c2nc(N3CCCC3)oc2CC(F)(F)F)cc(F)c1NC1CC2CC(C2)C1 (stereo not drawn) [Example 193, N-(4-(bicyclo[3.1.1]heptan-3-ylamino)-3-fluoro-5-methylphenyl)-2-(pyrrolidin-1-yl)-5-(2,2,2-trifluoroethyl)oxazole-4-carboxamide] | 10 to 1000 | 10 to 1000 | –
11 | COC1(C)CN(c2nc(C(=O)Nc3cc(C)c(NC4C5CCCC4CC5)c(F)c3)c(CC(F)(F)F)o2)C1 (stereo not drawn) [Example 195, N-(4-(bicyclo[3.2.1]octan-8-ylamino)-3-fluoro-5-methylphenyl)-2-(3-methoxy-3-methylazetidin-1-yl)-5-(2,2,2-trifluoroethyl)oxazole-4-carboxamide] | 10 to 1000 | 10 to 1000 | –
12 | COC1(C)CN(c2nc(C(=O)Nc3cc(F)c(N4C5CCCC4CC5)c(C#N)c3)c(CC(F)(F)F)o2)C1 [Example 196, N-(4-(8-azabicyclo[3.2.1]octan-8-yl)-3-cyano-5-fluorophenyl)-2-(3-methoxy-3-methylazetidin-1-yl)-5-(2,2,2-trifluoroethyl)oxazole-4-carboxamide] | 10 to 1000 | – | 10 to 1000
13 | COC1(C)CN(c2nc(C(=O)Nc3ccc(N4C5CCCC4CC5)c(C#N)c3)c(CC(F)(F)F)o2)C1 [Example 197, N-(4-(8-azabicyclo[3.2.1]octan-8-yl)-3-cyanophenyl)-2-(3-methoxy-3-methylazetidin-1-yl)-5-(2,2,2-trifluoroethyl)oxazole-4-carboxamide] | 10 to 1000 | – | 10 to 1000
14 | CC1(C)CN(c2nc(C(=O)Nc3cc(F)c(N4C5CCCC4CC5)c(F)c3)c(CC(F)(F)F)o2)C1 [Example 200, N-(4-(8-azabicyclo[3.2.1]octan-8-yl)-3,5-difluorophenyl)-2-(3,3-dimethylazetidin-1-yl)-5-(2,2,2-trifluoroethyl)oxazole-4-carboxamide] | 10 to 1000 | – | 10 to 1000
15 | O=C(Nc1cc(F)c(N2C3CCCC2CC3)c(F)c1)c1nc(N2CC3COCC3C2)oc1CC(F)(F)F (stereo not drawn) [Example 201, N-(4-(8-azabicyclo[3.2.1]octan-8-yl)-3,5-difluorophenyl)-2-(tetrahydro-1H-furo[3,4-c]pyrrol-5(3H)-yl)-5-(2,2,2-trifluoroethyl)oxazole-4-carboxamide] | 10 to 1000 | – | 10 to 1000
16 | O=C(Nc1ccc(N2CC3CC(C3)C2)c(F)c1)c1nc(N2CCC3(COC3)C2)oc1CC(F)(F)F [Example 202, N-(4-(3-azabicyclo[3.1.1]heptan-3-yl)-3-fluorophenyl)-2-(2-oxa-6-azaspiro[3.4]octan-6-yl)-5-(2,2,2-trifluoroethyl)oxazole-4-carboxamide] | 10 to 1000 | – | 10 to 1000
17 | CCC1(OC)CN(c2nc(C(=O)Nc3cc(F)c(N4CC5CC(C5)C4)c(F)c3)c(CC(F)(F)F)o2)C1 [Example 203, N-(4-(3-azabicyclo[3.1.1]heptan-3-yl)-3,5-difluorophenyl)-2-(3-ethyl-3-methoxyazetidin-1-yl)-5-(2,2,2-trifluoroethyl)oxazole-4-carboxamide] | 10 to 1000 | – | 10 to 1000
18 | CCC1(OC)CN(c2nc(C(=O)Nc3cc(F)c(N4C5CCCC4CC5)c(F)c3)c(CC(F)(F)F)o2)C1 [Example 206, N-(4-(8-azabicyclo[3.2.1]octan-8-yl)-3,5-difluorophenyl)-2-(3-ethyl-3-methoxyazetidin-1-yl)-5-(2,2,2-trifluoroethyl)oxazole-4-carboxamide] | 10 to 1000 | – | 10 to 1000
19 | COC1(C)CN(c2nc(C(=O)Nc3cc(F)c(N4C5CCCC4CC5)c(F)c3)c(CC(F)(F)F)o2)C1 [Example 207, N-(4-(8-azabicyclo[3.2.1]octan-8-yl)-3,5-difluorophenyl)-2-(3-methoxy-3-methylazetidin-1-yl)-5-(2,2,2-trifluoroethyl)oxazole-4-carboxamide] | 10 to 1000 | – | 10 to 1000
20 | CCc1oc(N2CC(CC)(OC)C2)nc1C(=O)Nc1cc(F)c(O[C@@H]2C[C@@H]3C[C@@H]3C2)c(Cl)c1 [Example 219, N-(4-(cis-bicyclo[3.1.0]hexan-3-yloxy)-3-chloro-5-fluorophenyl)-5-ethyl-2-(3-ethyl-3-methoxyazetidin-1-yl)oxazole-4-carboxamide] | 10 to 1000 | 10 to 1000 | –
21 | CCc1oc(N2CC(CC)(CC)C2)nc1C(=O)Nc1cc(F)c(O[C@@H]2C[C@@H]3C[C@@H]3C2)c(Cl)c1 [Example 221, N-(4-(cis-bicyclo[3.1.0]hexan-3-yloxy)-3-chloro-5-fluorophenyl)-2-(3,3-diethylazetidin-1-yl)-5-ethyloxazole-4-carboxamide] | 10 to 1000 | 10 to 1000 | –
22 | CCc1oc(N2CC(C)(OC)C2)nc1C(=O)Nc1cc(F)c(O[C@@H]2C[C@@H]3C[C@@H]3C2)c(Cl)c1 [Example 223, N-(4-(cis-bicyclo[3.1.0]hexan-3-yloxy)-3-chloro-5-fluorophenyl)-5-ethyl-2-(3-methoxy-3-methylazetidin-1-yl)oxazole-4-carboxamide] | 10 to 1000 | 10 to 1000 | –
23 | CCc1oc(N2CC(C)(CO)C2)nc1C(=O)Nc1cc(C)c(OC2CC3CC(C3)C2)c(F)c1 (stereo not drawn) [Example 224, N-(4-(bicyclo[3.1.1]heptan-3-yloxy)-3-fluoro-5-methylphenyl)-5-ethyl-2-(3-(hydroxymethyl)-3-methylazetidin-1-yl)oxazole-4-carboxamide] | 10 to 1000 | 10 to 1000 | –
24 | CCc1oc(N2CCCC2)nc1C(=O)Nc1cc(C)c(OC2CC3CC(C3)C2)c(F)c1 (stereo not drawn) [Example 225, N-(4-(bicyclo[3.1.1]heptan-3-yloxy)-3-fluoro-5-methylphenyl)-5-ethyl-2-(pyrrolidin-1-yl)oxazole-4-carboxamide] | 10 to 1000 | 10 to 1000 | –
